Laboratory results as given in paper PMC11845761, “Intestinal human carboxylesterase 2 (CES2) expression rescues drug metabolism and most metabolic syndrome phenotypes in global Ces2 cluster knockout mice” (Acta Pharmacologica Sinica, 2024).
Like-named read-outs stand apart in the source and are kept apart here. Marks after values point to notes of the source that are not given here.

What was measured:
[1] = Tissue concentrations of capecitabine and its metabolites 2 h after oral capecitabine in CES2-modified mice; format: in vivo, mouse; settings: oral capecitabine 500 mg/kg; for concentration at 2 h: female, mouse, oral, 500 mg/kg
Protocol: (§1) For capecitabine 2-h experiments, 6–7 female mice received oral capecitabine (500 mg/kg, 10 μL/g), and tail vein blood samples were collected at 0.125, 0.25, 0.5 and 1 h after drug administration. For the vinorelbine 4-h experiment, 6-7 male mice received vinorelbine intravenously (10 mg/kg, 5 μL/g) or orally (10 mg/kg, 10 μL/g) using a blunt-ended needle. Tail vein blood samples were collected at 0.125, 0.25, 0.5, 1 and 2 h after drug administration. […] At the last time point in each experiment (2 or 4 h), mice were anesthetized with 5% isoflurane and blood was collected by cardiac puncture. […] Plasma was isolated from the blood by centrifugation at 9000 × g for 6 min at 4 °C, and the plasma fraction was collected and stored at −30 °C until analysis.
(§2) Concentrations of capecitabine (and its metabolites) and vinorelbine (and its metabolite) in mouse plasma samples and organ homogenates were determined using two independent validated high-performance liquid chromatography-tandem mass spectrometry assays.
(§3) Pharmacokinetic parameters were calculated by non-compartmental methods using the PK solver software. […] Differences were considered statistically significant when P < 0.05. All data are presented as mean ± SD.

[2] = Plasma pharmacokinetics of capecitabine and its metabolites after oral capecitabine in CES2-modified mice; format: in vivo, mouse; settings: oral capecitabine 500 mg/kg, plasma; for AUC(0-t): read-out: AUC0-2h
Protocol: as §1, §2, §3

[3] = irinotecan i.v. or orally administered; Ces2^–/– vs wild-type mice; data not shown

For `C[C@H]1O[C@@H](n2cc(F)c(N)nc2=O)[C@H](O)[C@@H]1O` [5’-DFCR, 5’-deoxy-5-fluorocytidine], the “Colon concentration ratio (metabolite/capecitabine)” value ([1]; female Ces2^–/– mice) was 2.0 ± 0.4, the “Liver concentration ratio (metabolite/capecitabine)” value ([1]; female Ces2^–/– mice) was 2.0 ± 0.6 and the “Small intestine concentration ratio (metabolite/capecitabine)” value ([1]; female Ces2^–/– mice) was 0.36 ± 0.20. The “Small intestine contents concentration ratio (metabolite/capecitabine)” value ([1]; female Ces2^–/– mice) was 0.11 ± 0.04, the “Colon concentration ratio (metabolite/capecitabine)” value ([1]; female Ces2^–/–A mice) was 3.2 ± 0.2 and the “Liver concentration ratio (metabolite/capecitabine)” value ([1]; female Ces2^–/–A mice) was 8.8 ± 3.6. The “Small intestine concentration ratio (metabolite/capecitabine)” value ([1]; female Ces2^–/–A mice) was 0.45 ± 0.21, the “Small intestine contents concentration ratio (metabolite/capecitabine)” value ([1]; female Ces2^–/–A mice) was 0.10 ± 0.06 and the “Colon concentration ratio (metabolite/capecitabine)” value ([1]; female Ces2^–/–V mice) was 5.1 ± 2.1. The “Liver concentration ratio (metabolite/capecitabine)” value ([1]; female Ces2^–/–V mice) was 4.0 ± 1.0***##^^, the “Small intestine concentration ratio (metabolite/capecitabine)” value ([1]; female Ces2^–/–V mice) was 1.80 ± 0.88^###^^^ and the “Small intestine contents concentration ratio (metabolite/capecitabine)” value ([1]; female Ces2^–/–V mice) was 0.13 ± 0.05. For the same compound, the “Colon concentration ratio (metabolite/capecitabine)” value ([1]; female wild-type mice) was 6.9 ± 1.3, the “Liver concentration ratio (metabolite/capecitabine)” value ([1]; female wild-type mice) was 17.4 ± 7.3 and the “Small intestine concentration ratio (metabolite/capecitabine)” value ([1]; female wild-type mice) was 3.20 ± 1.70. For the same compound, the “Small intestine contents concentration ratio (metabolite/capecitabine)” value ([1]; female wild-type mice) was 0.19 ± 0.08, the concentration at 2 h ([1]; Ces2^-/-, liver, female Ces2^–/– mice, read-out: Cliver (liver concentration)) was 33300 ± 11600 ng/g and the concentration at 2 h ([1]; Ces2^-/-, small intestine, female Ces2^–/– mice, read-out: CSI (small intestine tissue concentration)) was 5410 ± 1430 ng/g. The concentration at 2 h ([1]; Ces2^-/-A, liver, female Ces2^–/–A mice, read-out: Cliver (liver concentration)) was 36600 ± 5870 ng/g, the concentration at 2 h ([1]; Ces2^-/-A, small intestine tissue, female Ces2^–/–A mice, read-out: CSI (small intestine tissue concentration)) was 6220 ± 1830 ng/g and the concentration at 2 h ([1]; Ces2^-/-V, liver, female Ces2^–/–V mice, read-out: Cliver (liver concentration)) was 23300 ± 8530 ng/g. The concentration at 2 h ([1]; Ces2^-/-V, small intestine, female Ces2^–/–V mice, read-out: CSI (small intestine tissue concentration)) was 3600 ± 1570 ng/g, the concentration at 2 h ([1]; colon, female Ces2^–/– mice, read-out: Ccolon (colon concentration)) was 25700 ± 10700 ng/g and the concentration at 2 h ([1]; colon, female Ces2^–/–A mice, read-out: Ccolon (colon concentration)) was 28200 ± 5870 ng/g. It also gave a concentration at 2 h ([1]; colon, female Ces2^–/–V mice, read-out: Ccolon (colon concentration)) of 21200 ± 8100 ng/g, a concentration at 2 h ([1]; colon, female wild-type mice, read-out: Ccolon (colon concentration)) of 14900 ± 3800 ng/g and a concentration at 2 h ([1]; liver, female wild-type mice, read-out: Cliver (liver concentration)) of 20300 ± 5740 ng/g. The concentration at 2 h ([1]; small intestine contents, female Ces2^–/– mice, read-out: CSIC (small intestine contents concentration)) was 10800 ± 5610 ng/g, the concentration at 2 h ([1]; small intestine contents, female Ces2^–/–A mice, read-out: CSIC (small intestine contents concentration)) was 8120 ± 2840 ng/g and the concentration at 2 h ([1]; small intestine contents, female Ces2^–/–V mice, read-out: CSIC (small intestine contents concentration)) was 5180 ± 2410 ng/g. The concentration at 2 h ([1]; small intestine contents, female wild-type mice, read-out: CSIC (small intestine contents concentration)) was 4410 ± 2350 ng/g, the concentration at 2 h ([1]; small intestine tissue, female wild-type mice, read-out: CSI (small intestine tissue concentration)) was 4510 ± 1340 ng/g and the “AUC0-2h ratio (metabolite/capecitabine)” value ([2]; female Ces2^–/– mice) was 6.4 ± 1.9. The “AUC0-2h ratio (metabolite/capecitabine)” value ([2]; female Ces2^–/–A mice) was 6.4 ± 2.4, the “AUC0-2h ratio (metabolite/capecitabine)” value ([2]; female Ces2^–/–V mice) was 8.0 ± 2.2 and the “AUC0-2h ratio (metabolite/capecitabine)” value ([2]; female wild-type mice) was 21.3 ± 3.5. For the same compound, the AUC(0-t) ([2]; female, Ces2^–/– (Ces2 cluster knockout), mouse, po, 500 mg/kg, female Ces2^–/– mice) was 175 ± 37.3 µg·h/mL, the Cmax ([2]; female, Ces2^–/– (Ces2 cluster knockout), mouse, po, 500 mg/kg, female Ces2^–/– mice, read-out: Cmax) was 121 ± 23.9 µg/mL and the Tmax ([2]; female, Ces2^–/– (Ces2 cluster knockout), mouse, po, 500 mg/kg, female Ces2^–/– mice, read-out: Tmax) was 27.6 ± 16.2 min. For the same compound, the AUC(0-t) ([2]; female, mouse, po, 500 mg/kg, female Ces2^–/–A mice) was 165 ± 45.2 µg·h/mL, the Cmax ([2]; female, mouse, po, 500 mg/kg, female Ces2^–/–A mice, read-out: Cmax) was 117 ± 35.7 µg/mL and the Tmax ([2]; female, mouse, po, 500 mg/kg, female Ces2^–/–A mice, read-out: Tmax) was 27.6 ± 6 min. The AUC(0-t) ([2]; female, mouse, po, 500 mg/kg, female Ces2^–/–V mice) was 123 ± 34.7 µg·h/mL, the Cmax ([2]; female, mouse, po, 500 mg/kg, female Ces2^–/–V mice, read-out: Cmax) was 80 ± 18.2 µg/mL and the Tmax ([2]; female, mouse, po, 500 mg/kg, female Ces2^–/–V mice, read-out: Tmax) was 36.6 ± 22.8 min. For the same compound, the AUC(0-t) ([2]; female, mouse, po, 500 mg/kg, female wild-type mice) was 123 ± 24.9 µg·h/mL, the Cmax ([2]; female, mouse, po, 500 mg/kg, female wild-type mice, read-out: Cmax) was 101 ± 18 µg/mL and the Tmax ([2]; female, mouse, po, 500 mg/kg, female wild-type mice, read-out: Tmax) was 15 ± 8.4 min.

In the case of `C[C@H]1O[C@@H](n2cc(F)c(=O)[nH]c2=O)[C@H](O)[C@@H]1O` [5’-DFUR], the “CSI (small intestine tissue concentration)” value ([1]; female Ces2^–/– mice) is reported as 5099 ± 1783 ng/g, the “CSIC (small intestine contents concentration)” value (“CSIC” below) ([1]; female Ces2^–/– mice) is reported as 3905 ± 2357 ng/g and the “Ccolon (colon concentration)” value ([1]; female Ces2^–/– mice) is reported as 4754 ± 3040 ng/g. The “Cliver (liver concentration)” value ([1]; female Ces2^–/– mice) was 3447 ± 1643 ng/g, the “Colon concentration ratio (metabolite/capecitabine)” value ([1]; female Ces2^–/– mice) was 0.34 ± 0.06 and the “Liver concentration ratio (metabolite/capecitabine)” value ([1]; female Ces2^–/– mice) was 0.21 ± 0.09. For the same compound, the “Small intestine concentration ratio (metabolite/capecitabine)” value ([1]; female Ces2^–/– mice) was 0.32 ± 0.13, the “Small intestine contents concentration ratio (metabolite/capecitabine)” value ([1]; female Ces2^–/– mice) was 0.036 ± 0.016 and the “CSI (small intestine tissue concentration)” value ([1]; female Ces2^–/–A mice) was 4632 ± 1545 ng/g. The “CSIC” value ([1]; female Ces2^–/–A mice) was 2689 ± 1092 ng/g, the “Ccolon (colon concentration)” value ([1]; female Ces2^–/–A mice) was 3692 ± 793 ng/g and the “Cliver (liver concentration)” value ([1]; female Ces2^–/–A mice) was 2628 ± 793 ng/g. For the same compound, the “Colon concentration ratio (metabolite/capecitabine)” value ([1]; female Ces2^–/–A mice) was 0.42 ± 0.06, the “Liver concentration ratio (metabolite/capecitabine)” value ([1]; female Ces2^–/–A mice) was 0.66 ± 0.37 and the “Small intestine concentration ratio (metabolite/capecitabine)” value ([1]; female Ces2^–/–A mice) was 0.33 ± 0.12. The “Small intestine contents concentration ratio (metabolite/capecitabine)” value ([1]; female Ces2^–/–A mice) was 0.035 ± 0.025, the “CSI (small intestine tissue concentration)” value ([1]; female Ces2^–/–V mice) was 3194 ± 1571 ng/g and the “CSIC” value ([1]; female Ces2^–/–V mice) was 2248 ± 905 ng/g. For the same compound, the “Ccolon (colon concentration)” value ([1]; female Ces2^–/–V mice) was 5426 ± 27021.6 ng/g, the “Cliver (liver concentration)” value ([1]; female Ces2^–/–V mice) was 2635 ± 1118 ng/g and the “Colon concentration ratio (metabolite/capecitabine)” value ([1]; female Ces2^–/–V mice) was 1.2 ± 0.5^###^^^. The “Liver concentration ratio (metabolite/capecitabine)” value ([1]; female Ces2^–/–V mice) was 0.44 ± 0.12, the “Small intestine concentration ratio (metabolite/capecitabine)” value ([1]; female Ces2^–/–V mice) was 1.50 ± 0.56^###^^^ and the “Small intestine contents concentration ratio (metabolite/capecitabine)” value ([1]; female Ces2^–/–V mice) was 0.060 ± 0.024. The “CSI (small intestine tissue concentration)” value ([1]; female wild-type mice) was 2119 ± 460 ng/g, the “CSIC” value ([1]; female wild-type mice) was 1759 ± 941 ng/g and the “Ccolon (colon concentration)” value ([1]; female wild-type mice) was 2694 ± 755 ng/g. For the same compound, the “Cliver (liver concentration)” value ([1]; female wild-type mice) was 1750 ± 637 ng/g, the “Colon concentration ratio (metabolite/capecitabine)” value ([1]; female wild-type mice) was 1.2 ± 0.3 and the “Liver concentration ratio (metabolite/capecitabine)” value ([1]; female wild-type mice) was 1.60 ± 0.96. The “Small intestine concentration ratio (metabolite/capecitabine)” value ([1]; female wild-type mice) was 1.50 ± 0.62, the “Small intestine contents concentration ratio (metabolite/capecitabine)” value ([1]; female wild-type mice) was 0.077 ± 0.032 and the AUC0-2h ([2]; female Ces2^–/– mice) was 30.434 ± 12.95 µg·h/mL. For the same compound, the “AUC0-2h ratio (metabolite/capecitabine)” value ([2]; female Ces2^–/– mice) was 1.0 ± 0.9, the Cmax ([2]; female Ces2^–/– mice) was 22.886 ± 11.936 µg/mL and the Tmax ([2]; female Ces2^–/– mice) was 38.4 ± 14.4 min. The AUC0-2h ([2]; female Ces2^–/–A mice) was 29.452 ± 10.37 µg·h/mL, the “AUC0-2h ratio (metabolite/capecitabine)” value ([2]; female Ces2^–/–A mice) was 1.1 ± 0.3 and the Cmax ([2]; female Ces2^–/–A mice) was 21.1 ± 8.366 µg/mL. For the same compound, the Tmax ([2]; female Ces2^–/–A mice) was 34.8 ± 12 min, the AUC0-2h ([2]; female Ces2^–/–V mice) was 34.477 ± 13.143 µg·h/mL and the “AUC0-2h ratio (metabolite/capecitabine)” value ([2]; female Ces2^–/–V mice) was 2.1 ± 0.4***^###^^^. It also gave a Cmax ([2]; female Ces2^–/–V mice) of 23.871 ± 8.673 µg/mL, a Tmax ([2]; female Ces2^–/–V mice) of 47.4 ± 16.2 min and an AUC0-2h ([2]; female wild-type mice) of 27.337 ± 6.291 µg·h/mL. For the same compound, the “AUC0-2h ratio (metabolite/capecitabine)” value ([2]; female wild-type mice) was 4.7 ± 0.9, the Cmax ([2]; female wild-type mice) was 21.133 ± 7.207 µg/mL and the Tmax ([2]; female wild-type mice) was 25.2 ± 7.8 min.

In the case of `CCc1c2c(nc3ccc(O)cc13)-c1cc3c(c(=O)n1C2)COC(=O)[C@]3(O)CC` [SN-38], the “effect of mCes2 cluster knockout on plasma levels” value [3] is reported as “no significant effect”.
